Where two headings read alike, the source gives them in different places.
Experiments:
human recombinant CK2α1 = molecular target: T1, human recombinant CK2α1 (Homo sapiens, UniProt P68400); assay: CK2 ADP-Glo kinase assay; type: biochemical; details: for inhibition at 50 µM: read-out: CK2 Inhibition at 50 μM, m ± SD (%); for Effect on CK2 activity in initial screening (in words): initial screening at 50 μM
T1 construct: purchased Promega V4482
Experimental: Kinase activity was determined using the enzyme system CK2α1 (Promega V4482, Madison, WI, USA) and the ADP-Glo^TM kit (Promega V9101, Madison, WI, USA) in white 96-well plates (Nunc U96 Microwell 267350, Denmark). The reaction was carried out using 50 ng/well of N-GST labeled human recombinant CK2α1, 0.1 µg/µL bovine casein as a substrate, 10 μM ATP in 40 mM Tris buffer solution (pH 7.50) containing 20 mM MgCl2, 0.1 mg/mL of BSA, and 50 μM of DTT. Test compounds were added to 1.25% DMSO (final concentration 0.25%) and preincubated with kinase for 10 min. The reaction was carried out for 60 min at 25 °C in a thermostatically controlled PST-60HL shaker (Biosan. […], Latvia). ATP-dependent luminescence was measured at an integration time of 1000 ms using the Infinite M200 PRO microplate reader (Tecan. Austria). The ATP-competitive inhibitor Staurosporin (CAS 62996–74-1, Alfa Aesar J62837, 99+%) was used as a positive control. The experiments were performed in two parallels.

Hek-293 cells = assay: MTT test, human embryonic kidney cells; type: cell-based; details: 72 h incubation
Experimental: (§1) The studies were carried out on cultured cells of human glioblastoma (A-172, ATCC CRL 1620), human osteosarcoma (Hos, ATCC CRL 1543), human embryonic rhabdomyosarcoma (Rd, ATCC CRL 136), and human embryonic kidney 293 cells (Hek-293, ATCC CRL 1573) obtained from the Shared research facility “Vertebrate cell culture collection” (Institute of Cytology RAS, Saint-Petersburg, Russia). The cells were cultured using DMEM / F-12 medium containing 10% fetal bovine serum at 37°C, 5% CO2, and 98% humidity. Subculturing was performed using 0.25% trypsin solution when the culture reached ≥90% confluency.
(§2) The compounds were dissolved in DMSO. The solutions were diluted with DMEM/F-12 culture medium with 10% fetal bovine serum to the studied concentrations: 8, 16, 32, 64, 128, 256, 512, and 1024 µM. […] Cisplatin (cPt) was used as a positive control.
(§3) Cells were seeded in 96-well plates at a concentration of 4 × 10^3 cells per well. After 24 h, test compounds were added to the wells in a given concentration range. Then the cells were incubated for 72 h, after which a solution of MTT (3-(4,5-dimethyl-2-thiazolyl)-2,5-diphenyl-2H-tetrazolium bromide) was added to the cultures at 20 µL (5 mg/mL) to the well. After 2.5 h, the medium was removed from the wells and 200 µL of a mixture of DMSO/i-PrOH 1/1 was added. Optical density was measured on a plate spectrophotometer at a wavelength of 570 nm.
(§4) Statistical data processing was carried out in the RStudio program (Version 1.4.1106 © […] RStudio, PBC, Boston, MA, USA) using the R package (version 4.1.2). The cytotoxicity index (IC50) was calculated by plotting dose–response curves using the “drc” package.

Hos cells = assay: MTT test, osteosarcoma cells; type: cell-based, human; details: for Cytotoxicity index IC50 ± SE, Hos: MTT, 72 h incubation; for Selectivity ratio SR (HOS): normal/cancer cell (Hek-293 vs Hos)
Experimental: as §1, §2, §3, §4

A-172 cells = assay: MTT test, glioblastoma cells; type: cell-based, human; details: for Cytotoxicity index IC50 ± SE, A-172: MTT, 72 h incubation; for Selectivity ratio SR (A-172): normal/cancer cell (Hek-293 vs A-172)
Experimental: as §1, §2, §3, §4

Rd cells = assay: MTT test, embryonic rhabdomyosarcoma cells; type: cell-based, human; details: for Cytotoxicity index IC50 ± SE, Rd: MTT, 72 h incubation; for Selectivity ratio SR (RD): normal/cancer cell (Hek-293 vs Rd)
Experimental: as §1, §2, §3, §4

[1] = 50 μM compound, 10 μM ATP, n.a. = not active
[2] = dose-response study of CK2 inhibition
[3] = dose-response study, 10 μM ATP, read-out: CK2 IC50

T1 sequence (P68400 whole entry): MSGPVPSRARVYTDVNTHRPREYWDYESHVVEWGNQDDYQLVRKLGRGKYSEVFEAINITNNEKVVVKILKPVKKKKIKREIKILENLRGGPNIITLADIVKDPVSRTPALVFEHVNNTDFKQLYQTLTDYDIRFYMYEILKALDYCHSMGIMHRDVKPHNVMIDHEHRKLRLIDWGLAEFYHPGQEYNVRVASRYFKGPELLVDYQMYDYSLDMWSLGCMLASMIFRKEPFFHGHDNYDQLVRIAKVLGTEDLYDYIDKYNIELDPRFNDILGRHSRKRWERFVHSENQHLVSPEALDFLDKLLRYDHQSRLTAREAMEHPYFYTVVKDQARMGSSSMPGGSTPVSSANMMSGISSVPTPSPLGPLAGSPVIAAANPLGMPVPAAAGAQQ

Compound	inhibition at 50 µM (human recombinant CK2α1; [1]) [%]	Cytotoxicity index IC50 ± SE, Hek-293 (Hek-293 cells) [µM]	Cytotoxicity index IC50 ± SE, Hos (Hos cells) [µM]	Cytotoxicity index IC50 ± SE, A-172 (A-172 cells) [µM]	Cytotoxicity index IC50 ± SE, Rd (Rd cells) [µM]	IC50 (human recombinant CK2α1) [µM]	CK2 inhibitory potency in dose-response study (in words) (human recombinant CK2α1; dose-response study)	Hill Coefficient (human recombinant CK2α1; [2])	Effect on CK2 activity in initial screening (in words) (human recombinant CK2α1)	inhibition at 50 µM (human recombinant CK2α1) [%]	Selectivity ratio SR (HOS) (Hos cells)	Selectivity ratio SR (A-172) (A-172 cells)	Selectivity ratio SR (RD) (Rd cells)	IC50 (human recombinant CK2α1; [3]) [µM]	Hill Coefficient (human recombinant CK2α1)
CCC1=C([N+](=O)[O-])C(c2ccc([N+](=O)[O-])cc2)n2nc(SC)c(C#N)c2N1 (stereo not drawn) [Compound 5n, 5-Ehtyl-3-cyano-2-methylthio-6-nitro-7-(4ʹ-nitrophenyl)-4,7-dihydropyrazolo[1,5-a]pyrimidine]	19.8 ± 24.5	78.70 ± 9.75	112.26 ± 8.19	119.75 ± 8.49	151.44 ± 7.28	–	–	–	–	–	–	–	–	–	–
CCOC(=O)c1cnn2c1NC(CC)=C([N+](=O)[O-])C2c1ccccc1 (stereo not drawn) [Compound 5e, 3-Etoxycarbonyl-5-ethyl-6-nitro-7-phenyl-4,7-dihydropyrazolo[1,5-a]pyrimidine]	–	222.84 ± 6.33	126.60 ± 7.17	256.72 ± 12.20	99.46 ± 4.43	–	–	–	–	–	–	–	–	–	–
CCOC(=O)c1cnn2c1NC(CC)=C([N+](=O)[O-])C2c1ccc([N+](=O)[O-])cc1 (stereo not drawn) [Compound 5f, 3-Etoxycarbonyl-5-ethyl-6-nitro-7-(4ʹ-nitrophenyl)-4,7-dihydropyrazolo[1,5-a]pyrimidine]	–	35.86 ± 4.30	170.14 ± 11.16	212.36 ± 42.85	121.97 ± 13.53	52.8	micromolar CK2 inhibitors	−1.369	Moderate inhibition	53.81 ± 0.42	–	–	–	–	–
N#Cc1cnn2c1NC=C([N+](=O)[O-])C2c1ccccc1 (stereo not drawn) [Compound 5g, 3-Cyano-6-nitro-7-phenyl-4,7-dihydropyrazolo[1,5-a]pyrimidine]	–	483.09 ± 37.61	181.14 ± 7.47	171.74 ± 8.63	149.72 ± 11.01	–	–	–	paradoxically enhance CK2 activity	–	–	–	–	–	–
CSc1nn2c(c1C#N)NC(C)=C([N+](=O)[O-])C2c1ccccc1 (stereo not drawn) [Compound 5m, 3-Cyano-5-methyl-2-methylthio-6-nitro-7-phenyl-4,7-dihydropyrazolo[1,5-a]pyrimidine]	–	–	18.54 ± 1.79	13.36 ± 0.98	27.52 ± 2.77	–	–	–	paradoxically enhance CK2 activity	–	11.4	15.8	7.7	–	–
CCC1=C([N+](=O)[O-])C(c2cccs2)n2ncc(C#N)c2N1 (stereo not drawn) [Compound 5k, 3-Cyano-5-ethyl-6-nitro-7-(thiophen-2-yl)-4,7-dihydropyrazolo[1,5-a]pyrimidine]	66.8 ± 7.97	107.57 ± 11.10	77.32 ± 3.06	110.23 ± 2.97	89.43 ± 10.46	–	micromolar CK2 inhibitors	−1.183	Moderate inhibition	–	–	–	–	52.3	–
5-Methyl-2-methylthio-6-nitro-7-(4ʹ-nitrophenyl)-4,7-dihydro-1,2,4-triazolo[1,5-a]pyrimidine [Compound 6c]	–	–	40.88 ± 4.11	41.27 ± 4.10	71.15 ± 6.84	–	–	–	paradoxically enhance CK2 activity	–	5.6	5.5	3.2	–	–
CSc1nc2n(n1)C(c1ccccc1)C([N+](=O)[O-])=C(C)N2 (stereo not drawn) [Compound 6b, 5-Methyl-2-methylthio-6-nitro-7-phenyl-4,7-dihydro-1,2,4-triazolo[1,5-a]pyrimidine]	–	237.40 ± 11.99	92.03 ± 3.08	71.03 ± 2.07	110.11 ± 4.93	–	–	–	–	–	–	–	–	–	–
CN[C@@H]1C[C@H]2O[C@@](C)([C@@H]1OC)n1c3ccccc3c3c4c(c5c6ccccc6n2c5c31)C(=O)NC4 [Staurosporine, reference compound]	–	–	–	–	–	–	–	–	–	72.3 ± 6.39	–	–	–	–	−0.974
CCC1=C([N+](=O)[O-])C(c2ccc([N+](=O)[O-])cc2)n2nc(C(F)(F)F)nc2N1 (stereo not drawn) [Compound 6e]	39.8 ± 19.5	54.16 ± 5.32	93.72 ± 5.89	82.44 ± 2.22	192.69 ± 10.27	–	low potency	–	Moderate inhibition	–	–	–	–	> 100	–
CCC1=C([N+](=O)[O-])C(c2ccc([N+](=O)[O-])cc2)n2ncc(C#N)c2N1 (stereo not drawn) [Compound 5h, 3-Cyano-5-ehtyl-6-Nitro-7-(4ʹ-nitrophenyl)-4,7-dihydropyrazolo[1,5-a]pyrimidine]	–	153.47 ± 12.35	234.97 ± 25.80	323.41 ± 22.70	378.59 ± 20.39	59.5	micromolar CK2 inhibitors	−1.566	Moderate inhibition	54.8 ± 0.87	–	–	–	–	–
3-Cyano-2-methylthio-6-nitro-7-(4ʹ-nitrophenyl)-4,7-dihydropyrazolo[1,5-a]pyrimidine [Compound 5o]	–	–	28.09 ± 3.91	22.49 ± 2.93	36.33 ± 3.40	–	–	–	paradoxically enhance CK2 activity	–	6	7.5	4.7	–	–
CSc1nn2c(c1C#N)NC=C([N+](=O)[O-])C2c1ccccc1 (stereo not drawn) [Compound 5l, 3-Cyano-2-methylthio-6-nitro-7-phenyl-4,7-dihydropyrazolo[1,5-a]pyrimidine]	48.4 ± 4.48	162.30 ± 9.95	92.91 ± 3.91	77.79 ± 4.02	124.66 ± 6.80	–	micromolar CK2 inhibitors	−2.947	Moderate inhibition	–	–	–	–	57.2	–
CC1=C([N+](=O)[O-])C(c2cccs2)n2nccc2N1 (stereo not drawn) [Compound 5d, 6-Nitro-5-methyl-7-(thiophen-2ʹ-yl)-4,7-dihydropyrazolo[1,5-a]pyrimidine]	–	543.74 ± 70.79	103.53 ± 18.27	28.91 ± 4.58	105.54 ± 16.81	–	–	–	–	–	–	–	–	–	–
N.N.[Cl][Pt][Cl] [cPt, Cisplatin, reference compound]	–	4.41 ± 0.24	2.36 ± 0.12	3.64 ± 0.21	4.99 ± 0.31	–	–	–	–	–	1.9	1.2	0.9	–	–
